From US20190031857A1, “BLACK-COLORED POLYAMIDE COMPOSITION AND PRODUCTION AND USE THEREOF” (BASF SE, priority 2016, published 2019)

How the values were obtained:
[1] = Incorporation and coloring of the polymer by extrusion; settings: attempted bulk coloring of polyethylene, above 160° C.
Method: 98 parts polyethylene (Grade M80064 from Sabic) were premixed in a tumbling mixer with 2 parts Solvent Black 28 (Orasol Black 045 from BASF) for 10 minutes and extruded in a twin-shaft extruder having a diameter of 18 mm and an L/D ratio of 44 at barrel temperature 210° C. A significant odor developed from the extruder nozzle; the polymer strands had expanded in the foam mold. The production of plaques by means of injection molding machines was not possible.
99.9 parts polyamide PA6 (Ultramid B3S from BASF) were premixed in a tumbling mixer with 0.1 part Solvent Violet 13 (Orasol Blue 640 from BASF) for 10 minutes and then extruded and pelletized using a twin-shaft extruder having a diameter of 18 mm and an L/D ratio of 44 at barrel temperature 260° C. For this purpose, the natural-colored polyamide pellets were dried beforehand in a drying oven at 100° C. for 4 hours, such that the moisture content was below 0.1%. For this purpose, the moisture content was determined by means of a thermal balance.

[2] = Solubility of Solvent Black 28 in solvents; format: physicochemical
Method: The chromium complex dye b) used in accordance with the invention is available under the name Solvent Black 28 (CAS no.: 12237-23-9, C.I. Solvent Black 28). A commercially available product is Orasol Black 045 from BASF SE. […] Solubility at 20° C. in ethanol is about 10 g/L and in methyl ethyl ketone about 400 g/L.

For Solvent Black 28, which “thermal stability in bulk coloring of polyethylene” value [1] is on record?
Its value is “entirely inadequate thermal stability”.

And the Solubility in ethanol ([2]; 20° C., ethanol)?
The Solubility in ethanol was “about 10 g/L”.

And the “Solubility in methyl ethyl ketone” value ([2]; 20° C., methyl ethyl ketone)?
Its value is “about 400 g/L”.

What about the Water solubility ([2]; water) of the same substance?
Its Water solubility is “almost water-insoluble”.
